These results are taken from patent US20040224377A1, “Compositions and methods to quench light from optical reactions” (priority 2003, published 2004).

What all share (format): biochemical
For test [1], the system named is red click beetle luciferase. Put plainly: Quenching phosphorescence from white luminometer plate, signal/background with red click beetle luciferase (Example IV). The settings on record: relative to phosphorescence S/B before dye. As for the experimental part: (§1) Stocks of Amaranth (Aldrich, 120561), Benzopurpurin 4B (Aldrich # 22882), and Fluorescence Brightener 28 (Aldrich 475300) were prepared in DMSO (Sigma) at 100 μM. Luminometer plates (96-well) were purchased from Dynex Technologies. The luminometer plates were broken into pieces that would fit into single luminometer tubes (12 mm diameter) purchased from Promega Corporation. All experiments were performed in a lab under normal fluorescent lighting.
(§2) The experiment measured the signal/background ratio before and after the addition of colored compounds or DMSO. Luminescence measurements were taken from the empty luminescent tube in each experiment to quantitate background. A piece of white luminescent plate, 100 μl of Bright-Glo™ Reagent prepared according to the manufacturer's instructions (Promega Corporation), and 100 μl of Glo Lysis Buffer (Promega Corporation) were placed into the luminescent tube, and the luminescence was again measured. […] 2 μl of DMSO or one of the dyes in DMSO were then added to the tube, the sample was mixed, and the luminescence was measured a third time. This measurement captured the amount of luminescence emitted through the now-colored reagent or the reagent containing the DMSO carrier. Finally, 2 μl of luciferase was added to the tube, the sample was mixed, and the luminescence measured a final time. […]

Test [2] has as its system firefly luciferase. Put plainly: Quenching phosphorescence from white luminometer plate, signal/background with firefly luciferase (Example IV). The settings on record: relative to phosphorescence S/B before dye. As for the experimental part: as §1, §2
Test [3] concerns the target firefly luciferase (Photinus pyralis, UniProt P08659). The experiment in a line: Effect of quench reagents on firefly luciferase luminescent reaction (FIGS. 1-3). The settings on record: luminescence normalized to value without the reagent. The procedure: To test the effect of coelenterazine hh methyl ether on a firefly luciferase luminescent reaction, a luciferase reagent was prepared (270 μM coenzyme A (Pharmacia), 530 μM ATP (Pharmacia), 20 mM Tricine pH 7.8 (Fisher), 1 mM magnesium carbonate (Sigma), 0.1 mM ETDA (Sigma), 2.7 mM magnesium sulfate (Sigma), and 33 mM dithiothreitol (Sigma)) with varying concentrations of beetle luciferin (Promega), both above and below the concentration required for luciferase saturation (940 μM, 470 μM, 235 μM and 117.5 μM, saturation occurs at about 470 μM). […] Luminescence from firefly luciferase was measured by adding 20 μl of firefly luciferase (5×10^−14 moles/reaction) (Promega Corp.) in 1× Cell Culture Lysis Reagent (Promega Corporation) containing 1 mg/ml bovine serum albumin (BSA) to 100 μl of the luciferase reagents. Luminescence was normalized to the value integrated in the absence of coelenterazine hh methyl ether.
To test the effect of Tergitol® NP-9 on the firefly luciferase luminescent reaction, Luciferase Assay Reagent (Promega Corporation) was prepared according to the manufacturer's instructions. […] Luminescence was integrated after adding 20 μl of firefly luciferase (2.5×10^−14 moles/reaction) in 150 mM HEPES pH 7.4 and 1 mg/ml gelatin, to 100 μl of reagent. Luminescence was normalized to the value integrated for no detergent. […]

For the next test, the target named is T1, Renilla luciferase (Renilla reniformis, UniProt P27652).
T1 sequence (P27652 1-311): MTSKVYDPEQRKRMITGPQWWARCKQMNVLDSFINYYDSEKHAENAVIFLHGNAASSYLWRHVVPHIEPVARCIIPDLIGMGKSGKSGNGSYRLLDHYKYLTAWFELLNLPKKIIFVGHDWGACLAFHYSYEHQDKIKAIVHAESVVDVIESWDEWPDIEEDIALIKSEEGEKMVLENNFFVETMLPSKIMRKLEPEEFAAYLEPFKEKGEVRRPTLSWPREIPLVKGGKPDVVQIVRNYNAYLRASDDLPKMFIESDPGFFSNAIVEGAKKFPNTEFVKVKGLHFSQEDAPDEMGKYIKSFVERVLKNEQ
The experiment in a line: Selective quench of Renilla luciferase luminescent reaction (Example I). The settings on record: for Fold quench of Renilla luciferase: Luciferase Assay Reagent with 1% Tergitol NP-9, 200 μM coelenterazine hh methyl ether, 1 mM berberine hemisulfate or combinations, initial divided by residual luminescence. As for the experimental part:
Each buffer was added to a vial of Luciferase Assay Substrate (pt. El 51, Promega Corporation) to make Luciferase Assay Reagent (LAR) plus the quenching agent(s). […] Luminescence was initiated by addition of 20 μl of enzyme solution to 100 μl of Renilla Luciferase Assay Reagent, and measured. […] Fold quench was calculated as the quotient of the initial Renilla luciferase luminescence divided by the residual Renilla luciferase luminescence.

Test [4] deals with horseradish peroxidase (HRP). Put plainly: Quenching light from horseradish peroxidase/luminol chemiluminescent reaction (Example III, FIG. 4). As for the experimental part:
20 μl of 0.044 mg/ml horseradish peroxidase (HRP), prepared in KPO4, pH 6.5, was added to 100 μl of 50 mM NaHCO3, 2 μM H2O2+/−100 μM berberine hemisulfate. […] 100 μl of 10 mM Luminol (Sigma) in 55 mM NaOH was then added to initiate the chemiluminescent reaction and the luminescence was measured on a luminometer. Luminescence was captured at various times after reaction initiation.

Sequence of firefly luciferase (Photinus pyralis, UniProt P08659) (P08659 whole entry): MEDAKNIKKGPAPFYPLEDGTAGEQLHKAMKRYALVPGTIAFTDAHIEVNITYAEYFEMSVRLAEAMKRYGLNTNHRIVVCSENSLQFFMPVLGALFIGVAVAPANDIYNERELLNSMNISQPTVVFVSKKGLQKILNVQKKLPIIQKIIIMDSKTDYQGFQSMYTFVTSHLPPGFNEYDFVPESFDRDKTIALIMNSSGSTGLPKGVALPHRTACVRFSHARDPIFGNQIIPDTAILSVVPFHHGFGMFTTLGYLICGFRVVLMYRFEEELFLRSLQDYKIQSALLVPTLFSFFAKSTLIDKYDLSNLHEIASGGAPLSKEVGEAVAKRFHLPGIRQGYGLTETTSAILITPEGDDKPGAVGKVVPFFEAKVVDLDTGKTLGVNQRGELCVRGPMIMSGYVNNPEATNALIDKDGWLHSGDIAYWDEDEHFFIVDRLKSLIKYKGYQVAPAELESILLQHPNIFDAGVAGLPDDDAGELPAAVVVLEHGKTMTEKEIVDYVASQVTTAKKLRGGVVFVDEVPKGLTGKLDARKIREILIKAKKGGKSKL

As to `Cc1cc(-c2ccc(N=Nc3cc(S(=O)(=O)[O-])c4ccccc4c3N)c(C)c2)ccc1N=Nc1cc(S(=O)(=O)[O-])c2ccccc2c1N.[Na+].[Na+]` [Benzopurpurin 4B], in test [1], the “S/B Improvement” value is reported as 4500%. With `O=S(=O)([O-])c1cc(Nc2nc(Nc3ccccc3)nc(N(CCO)CCO)n2)ccc1/C=C/c1ccc(Nc2nc(Nc3ccccc3)nc(N(CCO)CCO)n2)cc1S(=O)(=O)[O-].[Na+].[Na+]` [Fluorescence Brightener, Fluorescence Brightener 28], the “S/B Improvement” value in the test with firefly luciferase [2] was determined as 440%. For the compound `COc1c(Cc2ccccc2)nc2c(Cc3ccccc3)nc(-c3ccccc3)cn12` [coelenterazine hh methyl ether, 2,8-dibenzyl-3-methoxy-6-phenyl-imidazo[1,2-a]pyrazine], the “effect on firefly luciferase luminescence” value on firefly luciferase [3] is “not affected”. For `OCCN(CCO)c1nc(N2CCCCC2)c2nc(N(CCO)CCO)nc(N3CCCCC3)c2n1` [dipyridamole], the “quench of the Renilla luciferase luminescent reaction” value on Renilla luciferase (at 1 mM) is “about 35 fold”. Regarding Tergitol NP-9, the “Fold quench of Renilla luciferase” value at Renilla luciferase is 86.67 fold. berberine hemisulfate: the “Fold quench of Renilla luciferase” value at Renilla luciferase is reported as 46 fold. The “effect on firefly luciferase luminescence” value on firefly luciferase [3] is listed as “not affected”. In addition, the “effect on horseradish peroxidase chemiluminescence (FIG. 4)” value in test [4] is recorded as “quenches”. For the same compound, the “quench of horseradish peroxidase-dependent chemiluminescence” value in test [4] (100 μM berberine hemisulfate, luminol) is “over 500 fold”.
